According to US20240224999A1, “METABOLIC INHIBITORS FOR CONTROLLING BIOFILM” (MC (US) 3 LLC, priority 2021, published 2024):
Entries after “also recorded” stand apart in the source; their conditions may differ.

Experiments:
[1] = system: Desulfovibrio alaskensis 14563; experiment: MBEC biofilm efficacy, Log (Growth) by enumeration; format: cell-based; settings: for Log (Growth): biofilm; for efficacy in controlling biofilm formation (in words): tested individually, standard temperature and pressure
Procedure: (§1) Strains of commonly found bacteria were used for testing the efficacy of the compounds, viz. Desulfovibrio alaskensis and Desulfovibrio vulgaris. Media for the cultures was also prepared by using a standard method. The cultures were aseptically used and incubated under anaerobic conditions. They were plated with an MBEC (minimal biofilm eradication concentration) lid, to allow for biofilm growth. […] Then the plates were rinsed, sonicated and enumerated. These enumerations were grown for 5-days for the readings.
(§2) A lyophilized Desulfovibrio alaskensis 14563, Desulfovibrio vulgaris 29579 pure cultures received from ATCC were resuspended individually in 500 ul of MB 1250. Aseptically, the content was transferred to a 5-mL tube of MB1250 medium. The cultures were incubated in an anaerobic chamber at 30° C. for 72 hrs. Subsequently, an individual stock culture with a final concentration of 25% glycerol were prepared by adding equal volumes of culture and 50% glycerol. 1 ml of the cultures were then transferred to 2-ml cryogenic vials and stored at −80° C. The purity of the stock cultures was evaluated through PCR, by amplifying the 16S rDNA region, and thus, it was verified that the original ATCC sample was a pure culture.
(§3) 48-hour cultures of ATCC Desulfovibrio alaskensis 14563 and Desulfovibrio vulgaris 29579 were prepared in an anaerobic chamber. Each culture was prepared as a 1:10 culture by taking 1 milliliter (mL) of a pure culture and inoculating 9 milliliters (mL) of fresh SRB2-LA media. Prepared cultures were incubated at 30° C. and further diluted 1:100 in SRB2-LA media after incubation. They were grown for another 24 hours then diluted 1:10. The 1:10 dilution was plated with an MBEC (minimal biofilm eradication concentration) lid, which would allow for biofilm growth.
(§4) Treatment plates were prepared by adding 180 μL of fresh phosphate buffer amended with 10% SRB2-LA media to each well. These wells were then dosed with the compounds of interest with a ppm range of 200 to 1 PPM. Edge wells were not used due to their inherent variability and evaporation of the media. Each experiment was done with at least three replicates for different treatments and non-treatment controls. After incubation of the MBEC plate, the MBEC lid was removed and added to a rinse plate containing phosphate buffer and 10% SRB2-LA. The lid was rinsed for 30 seconds then added to the treatment plate. The MBEC lids had 6 hours to 3 days of exposure time. After targeted exposure time, the plates were rinsed, sonicated, and enumerated. The rinse was done for 30 seconds in 10% SRB2-LA with phosphate buffer. Following the rinse, the lid was added to a plate with the same media and buffer mix and the plate was sonicated for 5 minutes. After five minutes, the lid was discarded, and each row of the plate was enumerated. These enumerations were grown for 5 days before being read.

[2] = system: Desulfovibrio vulgaris 29579; experiment: MBEC biofilm efficacy, Log (Growth) by enumeration; format: cell-based; settings: testing time 2 days
Procedure: as §1, §2, §3, §4

O=C(CCCN1C(=O)c2cccc3cccc(c23)C1=O)NO [Compound C12]
Log (Growth) ([1]; testing time 2 days, 5 PPM): 1
Log (Growth) ([1]; testing time 2 days, 25 PPM): 0
Log (Growth) ([1]; testing time 2 days, 50 PPM): 1
Log (Growth) ([1]; testing time 2 days, 100 PPM): 0.3
Log (Growth) ([1]; testing time 2 days, 200 PPM): 0
efficacy in controlling biofilm formation (in words) [1]: significant activity in controlling biofilms; also recorded: exhibited efficacy

CCCCCCCC(=O)NO [Compound C16]
Log (Growth) ([1]; testing time 2 days, 5 PPM): 5
Log (Growth) ([1]; testing time 2 days, 25 PPM): 5
Log (Growth) ([1]; testing time 2 days, 50 PPM): 3
Log (Growth) ([1]; testing time 2 days, 100 PPM): 1
Log (Growth) ([1]; testing time 2 days, 200 PPM): 0
efficacy in controlling biofilm formation (in words) [1]: significant activity in controlling biofilms; also recorded: exhibited efficacy

O=C(CN1C(=O)c2cccc3cccc(c23)C1=O)NO [Compound C1]
Log (Growth) ([2]; 5 PPM): 4
Log (Growth) ([2]; 25 PPM): 1
Log (Growth) ([2]; 50 PPM): 1
Log (Growth) ([2]; 100 PPM): 0
Log (Growth) ([2]; 200 PPM): 1
Log (Growth) ([1]; testing time 6 hours, 1 PPM): 4
Log (Growth) ([1]; testing time 6 hours, 5 PPM): 2
Log (Growth) ([1]; testing time 6 hours, 10 PPM): 1
Log (Growth) ([1]; testing time 6 hours, 25 PPM): 1
Log (Growth) ([1]; testing time 6 hours, 50 PPM): 1
Log (Growth) ([1]; testing time 18 hours, 1 PPM): 1
Log (Growth) ([1]; testing time 18 hours, 5 PPM): 0
Log (Growth) ([1]; testing time 18 hours, 10 PPM): 0
Log (Growth) ([1]; testing time 18 hours, 25 PPM): 0
Log (Growth) ([1]; testing time 18 hours, 50 PPM): 0
Log (Growth) ([1]; testing time 2 days, 1 PPM): 0
Log (Growth) ([1]; testing time 2 days, 2.5 PPM): 0
Log (Growth) ([1]; testing time 2 days, 10 PPM): 0
Log (Growth) ([1]; testing time 2 days, 15 PPM): 0
Log (Growth) ([1]; testing time 2 days, 20 PPM): 0
Log (Growth) ([1]; testing time 2 days, 25 PPM): 0
Log (Growth) ([1]; testing time 2 days, 40 PPM): 0
Log (Growth) ([1]; testing time 2 days, 50 PPM): 0
Log (Growth) ([1]; testing time 3 days, 50 PPM): 0
Log (Growth) ([1]; testing time 3 days, 100 PPM): 0
Log (Growth) ([1]; testing time 3 days, 200 PPM): 0
killing of the microorganism strain Desulfovibrio alaskensis (in words) ([1]; comparative testing against two commercial products, metabolic inhibition): completely killing
efficacy in controlling biofilm formation (in words) [1]: significant activity in controlling biofilms; also recorded: highest efficacy
